US6355799B1, “Substituted benzene compounds, process for their preparation, and herbicidal and defoliant compositions containing them” (ISK Americas Incorporated, priority 1997, dated 2002)

Legend:
Type in all cases: in vivo
[1] = test system: ivyleaf morningglory (Ipomoea hederacea, IPOHE); assay: Pre-emerge test, greenhouse herbicide activity screening; details: pre-emerge, 14 days after application, rating scale 0-100
How it was run: (§1)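 Visual ratings on a 0-100 scale (0 no damage, 100 all plants dead) were taken at 14 days after treatment. Rates of 15-1000 g ai/ha in acetone, 187 l/ha, were sprayed onto soil one day after planting (pre-emerge) or onto 2-3 leaf plants with 0.25% v/v surfactant (post-emerge).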

[2] = test system: green foxtail (Setaria viridis, SETVI); assay: as above; details: pre-emerge, 14 days after application, rating scale 0-100
How it was run: as §1

[3] = test system: barnyardgrass (Echinochloa crus-galli, ECHCG); assay: as above; details: pre-emerge, 14 days after application, rating scale 0-100
How it was run: as §1

[4] = test system: johnsongrass (Sorghum halepense, SORHA); assay: as above; details: pre-emerge, 14 days after application, rating scale 0-100
How it was run: as §1

[5] = test system: large crabgrass (Digitaria sanguinalis, DIGSA); assay: as above; details: pre-emerge, 14 days after application, rating scale 0-100
How it was run: as §1

[6] = test system: velvetleaf (Abutilon theophrasti, ABUTH); assay: as above; details: pre-emerge, 14 days after application, rating scale 0-100
How it was run: as §1

[7] = test system: sicklepod (Cassia obtusifolia, CASOB); assay: as above; details: pre-emerge, 14 days after application, rating scale 0-100
How it was run: as §1

[8] = test system: lambsquarters (Chenopodium album, CHEAL); assay: as above; details: pre-emerge, 14 days after application, rating scale 0-100
How it was run: as §1

[9] = test system: upland rice (Oryza sp., var. Tebonnet, RICE); assay: Pre-emerge test, crop safety; details: pre-emerge, 14 days after application, rating scale 0-100
How it was run: (§2)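 Rating: 0–100 visual injury, 14 DAA. Application: acetone, 187 l/ha, 15–1000 g ai/ha, flat-fan track sprayer with nozzle 40–45 cm above soil or canopy. Post-emerge runs used 0.25% v/v surfactant on 2–3 leaf plants.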

[10] = test system: field corn (Zea mays L., var. Dekalb 535, CORN); assay: Pre-emerge test, crop safety; details: pre-emerge, 14 days after application, rating scale 0-100
How it was run: as §2

[11] = test system: upland rice (Oryza sp., var. Tebonnet, RICE); assay: Post-emerge test, crop safety; details: post-emerge, 14 days after application, rating scale 0-100
How it was run: as §1

[12] = test system: field corn (Zea mays L., var. Dekalb 535, CORN); assay: Post-emerge test, crop safety; details: post-emerge, 14 days after application, rating scale 0-100
How it was run: as §1

[13] = test system: ivyleaf morningglory (Ipomoea hederacea, IPOHE); assay: Post-emerge test, greenhouse herbicide activity screening; details: post-emerge, 14 days after application, rating scale 0-100
How it was run: (§3)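 Compounds in acetone were track-sprayed at 15–1000 g ai/ha: pre-emergence onto soil sown the previous day, then top-watered to incorporate and later bottom-watered; post-emergence onto 2–3 leaf plants with 0.25% v/v surfactant, bottom-watered only. Ratings on a 0–100 phytotoxicity scale were taken at day 14.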

[14] = test system: green foxtail (Setaria viridis, SETVI); assay: as above; details: post-emerge, 14 days after application, rating scale 0-100
How it was run: as §3

[15] = test system: barnyardgrass (Echinochloa crus-galli, ECHCG); assay: as above; details: post-emerge, 14 days after application, rating scale 0-100
How it was run: as §3

[16] = test system: johnsongrass (Sorghum halepense, SORHA); assay: as above; details: post-emerge, 14 days after application, rating scale 0-100
How it was run: as §3

[17] = test system: large crabgrass (Digitaria sanguinalis, DIGSA); assay: as above; details: post-emerge, 14 days after application, rating scale 0-100
How it was run: as §3

[18] = test system: redroot pigweed (Amaranthus retroflexus, AMARE); assay: as above; details: post-emerge, 14 days after application
How it was run: as §3

[19] = test system: velvetleaf (Abutilon theophrasti, ABUTH); assay: as above; details: post-emerge, 14 days after application, rating scale 0-100
How it was run: as §3

[20] = test system: sicklepod (Cassia obtusifolia, CASOB); assay: as above; details: post-emerge, 14 days after application, rating scale 0-100
How it was run: as §3

[21] = test system: lambsquarters (Chenopodium album, CHEAL); assay: as above; details: post-emerge, 14 days after application, rating scale 0-100
How it was run: as §3

[22] = test system: redroot pigweed (Amaranthus retroflexus, AMARE); assay: Pre-emerge test, greenhouse herbicide activity screening; details: pre-emerge, 14 days after application, rating scale 0-100
How it was run: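 Herbicidal damage is scored 0 (none) to 100 (complete plant death) two weeks after a simulated field spray. Rates span 15–1000 g ai/ha, delivered in acetone at 187 l/ha. For post-emergence treatments, plants have 2–3 leaves and the spray carries 0.25% v/v non-ionic surfactant.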

[23] = 63 g ai/ha, rating scale 0-100 (0 no damage, 100 complete death)
[24] = 250 g ai/ha, rating scale 0-100

COc1c(Cl)cc(F)c(-n2c(=O)cc(C(F)(F)F)n(C)c2=O)c1NN=C1CCc2ccccc2C1 [15-18]
phytotoxicity rating IPOHE ([1]; 63 g ai/ha): 90 | phytotoxicity rating IPOHE ([1]; 250 g ai/ha): 100 | phytotoxicity rating SETVI ([2]; 63 g ai/ha): 95 | phytotoxicity rating SETVI ([2]; 250 g ai/ha): 100 | phytotoxicity rating ECHCG ([3]; 63 g ai/ha): 75 | phytotoxicity rating ECHCG ([3]; 250 g ai/ha): 100 | phytotoxicity rating SORHA ([4]; 63 g ai/ha): 75 | phytotoxicity rating SORHA ([4]; 250 g ai/ha): 100 | phytotoxicity rating DIGSA ([5]; 63 g ai/ha): 100 | phytotoxicity rating DIGSA ([5]; 250 g ai/ha): 100 | phytotoxicity rating ABUTH ([6]; 63 g ai/ha): 100 | phytotoxicity rating ABUTH ([6]; 250 g ai/ha): 100 | phytotoxicity rating CASOB ([7]; 63 g ai/ha): 100 | phytotoxicity rating CASOB ([7]; 250 g ai/ha): 100 | phytotoxicity rating CHEAL ([8]; 63 g ai/ha): 100 | phytotoxicity rating CHEAL ([8]; 250 g ai/ha): 100 | phytotoxicity rating RICE ([9]; 63 g ai/ha): 90 | phytotoxicity rating RICE ([9]; 250 g ai/ha): 99 | phytotoxicity rating CORN ([10]; 63 g ai/ha): 80 | phytotoxicity rating CORN ([10]; 250 g ai/ha): 95 | Post-emerge Herbicidal Activity RICE (crop damage rating) ([11]; 63 g ai/ha): 30 | Post-emerge Herbicidal Activity RICE (crop damage rating) ([11]; 250 g ai/ha): 85 | Post-emerge Herbicidal Activity CORN (crop damage rating) ([12]; 63 g ai/ha): 20 | Post-emerge Herbicidal Activity CORN (crop damage rating) ([12]; 250 g ai/ha): 80 | Post-emerge Herbicidal Activity IPOHE (phytotoxicity rating) ([13]; 63 g ai/ha): 90 | Post-emerge Herbicidal Activity IPOHE (phytotoxicity rating) ([13]; 250 g ai/ha): 100 | Post-emerge Herbicidal Activity SETVI (phytotoxicity rating) ([14]; 63 g ai/ha): 20 | Post-emerge Herbicidal Activity SETVI (phytotoxicity rating) ([14]; 250 g ai/ha): 80 | Post-emerge Herbicidal Activity ECHCG (phytotoxicity rating) ([15]; 63 g ai/ha): 10 | Post-emerge Herbicidal Activity ECHCG (phytotoxicity rating) ([15]; 250 g ai/ha): 95 | Post-emerge Herbicidal Activity SORHA (phytotoxicity rating) ([16]; 63 g ai/ha): 0 | Post-emerge Herbicidal Activity SORHA (phytotoxicity rating) ([16]; 250 g ai/ha): 99 | Post-emerge Herbicidal Activity DIGSA (phytotoxicity rating) ([17]; 63 g ai/ha): 10 | Post-emerge Herbicidal Activity DIGSA (phytotoxicity rating) ([17]; 250 g ai/ha): 100 | Post-emerge Herbicidal Activity AMARE (phytotoxicity rating) [18, 23]: 100 | Post-emerge Herbicidal Activity AMARE (phytotoxicity rating) [18, 24]: 100 | Post-emerge Herbicidal Activity ABUTH (phytotoxicity rating) ([19]; 63 g ai/ha): 100 | Post-emerge Herbicidal Activity ABUTH (phytotoxicity rating) ([19]; 250 g ai/ha): 100 | Post-emerge Herbicidal Activity CASOB (phytotoxicity rating) ([20]; 63 g ai/ha): 40 | Post-emerge Herbicidal Activity CASOB (phytotoxicity rating) ([20]; 250 g ai/ha): 100 | Post-emerge Herbicidal Activity CHEAL (phytotoxicity rating) ([21]; 63 g ai/ha): 100 | Post-emerge Herbicidal Activity CHEAL (phytotoxicity rating) ([21]; 250 g ai/ha): 100 | phytotoxicity rating AMARE ([22]; 63 g ai/ha): 100 | phytotoxicity rating AMARE ([22]; 250 g ai/ha): 100

COc1c(Cl)cc(F)c(-n2c(=O)cc(C(F)(F)F)n(C)c2=O)c1NN=C(C(F)(F)F)C(F)(F)F [15-21]
phytotoxicity rating IPOHE ([1]; 63 g ai/ha): 100 | phytotoxicity rating IPOHE ([1]; 250 g ai/ha): 100 | phytotoxicity rating SETVI ([2]; 63 g ai/ha): 100 | phytotoxicity rating SETVI ([2]; 250 g ai/ha): 100 | phytotoxicity rating ECHCG ([3]; 63 g ai/ha): 99 | phytotoxicity rating ECHCG ([3]; 250 g ai/ha): 100 | phytotoxicity rating SORHA ([4]; 63 g ai/ha): 100 | phytotoxicity rating SORHA ([4]; 250 g ai/ha): 100 | phytotoxicity rating DIGSA ([5]; 63 g ai/ha): 100 | phytotoxicity rating DIGSA ([5]; 250 g ai/ha): 100 | phytotoxicity rating ABUTH ([6]; 63 g ai/ha): 100 | phytotoxicity rating ABUTH ([6]; 250 g ai/ha): 100 | phytotoxicity rating CASOB ([7]; 63 g ai/ha): 100 | phytotoxicity rating CASOB ([7]; 250 g ai/ha): 100 | phytotoxicity rating CHEAL ([8]; 63 g ai/ha): 100 | phytotoxicity rating CHEAL ([8]; 250 g ai/ha): 100 | phytotoxicity rating RICE ([9]; 63 g ai/ha): 99 | phytotoxicity rating RICE ([9]; 250 g ai/ha): 100 | phytotoxicity rating CORN ([10]; 63 g ai/ha): 95 | phytotoxicity rating CORN ([10]; 250 g ai/ha): 100 | Post-emerge Herbicidal Activity RICE (crop damage rating) ([11]; 63 g ai/ha): 80 | Post-emerge Herbicidal Activity RICE (crop damage rating) ([11]; 250 g ai/ha): 90 | Post-emerge Herbicidal Activity CORN (crop damage rating) ([12]; 63 g ai/ha): 30 | Post-emerge Herbicidal Activity CORN (crop damage rating) ([12]; 250 g ai/ha): 90 | Post-emerge Herbicidal Activity IPOHE (phytotoxicity rating) ([13]; 63 g ai/ha): 100 | Post-emerge Herbicidal Activity IPOHE (phytotoxicity rating) ([13]; 250 g ai/ha): 100 | Post-emerge Herbicidal Activity SETVI (phytotoxicity rating) ([14]; 63 g ai/ha): 50 | Post-emerge Herbicidal Activity SETVI (phytotoxicity rating) ([14]; 250 g ai/ha): 90 | Post-emerge Herbicidal Activity ECHCG (phytotoxicity rating) ([15]; 63 g ai/ha): 60 | Post-emerge Herbicidal Activity ECHCG (phytotoxicity rating) ([15]; 250 g ai/ha): 100 | Post-emerge Herbicidal Activity SORHA (phytotoxicity rating) ([16]; 63 g ai/ha): 40 | Post-emerge Herbicidal Activity SORHA (phytotoxicity rating) ([16]; 250 g ai/ha): 95 | Post-emerge Herbicidal Activity DIGSA (phytotoxicity rating) ([17]; 63 g ai/ha): 30 | Post-emerge Herbicidal Activity DIGSA (phytotoxicity rating) ([17]; 250 g ai/ha): 95 | Post-emerge Herbicidal Activity AMARE (phytotoxicity rating) [18, 23]: 95 | Post-emerge Herbicidal Activity AMARE (phytotoxicity rating) [18, 24]: 100 | Post-emerge Herbicidal Activity ABUTH (phytotoxicity rating) ([19]; 63 g ai/ha): 100 | Post-emerge Herbicidal Activity ABUTH (phytotoxicity rating) ([19]; 250 g ai/ha): 100 | Post-emerge Herbicidal Activity CASOB (phytotoxicity rating) ([20]; 63 g ai/ha): 100 | Post-emerge Herbicidal Activity CASOB (phytotoxicity rating) ([20]; 250 g ai/ha): 100 | Post-emerge Herbicidal Activity CHEAL (phytotoxicity rating) ([21]; 63 g ai/ha): 100 | Post-emerge Herbicidal Activity CHEAL (phytotoxicity rating) ([21]; 250 g ai/ha): 100 | phytotoxicity rating AMARE ([22]; 63 g ai/ha): 100 | phytotoxicity rating AMARE ([22]; 250 g ai/ha): 100
